Measurements from patent US11583890B2, “Low temperature curing 1K basecoat and method to coat a substrate with the 1K basecoat” (BASF Coatings GmbH, priority 2017, dated 2023).

Assay: physchem
Format: physicochemical
Details: pH 8
From the text: One of ordinary skill will recognize that log P is a guideline tool for assessing amine candidates, since actual migration to the clear coat layer or retention within the aqueous 1K basecoat layer will be dependent upon the nature of the solvent base of the clear coat and other factors including the influence of other additives commonly present in the composition of both layers.
In one aspect of the first embodiment, the secondary amine may be a dialkyl amine.

logP	SMILES
~2.8	CCCCNCCCC [di-n-butyl amine]
0.93	CCNC(C)C [ethyl isopropyl amine]

SMILES	logP
CCCNCCC [di-n-propyl amine]	~1.6

Assay: physchem
Details: not given
From the text: The availability of the base electron pair is influenced by the steric environment presented by the groups (R′, R″ and CH2OH) bonded to the N and any electronic influence of those same groups.

SMILES	pKa
CCCNCCC [di-n-propyl amine]	10.9
CC(C)N(CO)C(C)C [methylol adduct of diisopropylamine]	9.0
CN(C)CCO [DMEOA, N,N-dimethylethanolamine, reference compound]	9.2
C1CCNC1 [pyrrolidine]	10.6
OCN1CCCC1 [methylol adduct of pyrrolidine]	8.9
OCN1CCCCC1 [methylol adduct of piperidine]	9.2
CC(C)(N)CO [AMP, 2-amino-2-methyl-1-propanol, reference compound]	9.8
CCN(CC)CO [methylol adduct of diethylamine]	8.9
CCCN(CO)CCC [methylol adduct of di-n-propyl amine]	8.01
